According to patent US12382957B2, “Lactam compound or salt thereof, complex, and fertilizer and plant growth regulator containing said compound or salt and complex” (AICHI STEEL CORPORATION, priority 2020, dated 2025):

Key:
[1] = Stability of aqueous solution (1H-NMR in waters with different pH); format: physicochemical; details: aqueous solutions of pH 1 (hydrochloric acid), pH 7 (water), pH 9 (sodium hydrogen carbonate), FIG. 1
Method: In order to investigate the stability of the lactam compound (L2) in water having different pH, an aqueous solution having a pH of 1 using hydrochloric acid, an aqueous solution having a pH of 7 in which the lactam compound (L2) was dissolved in water, and an aqueous solution having a pH of 9 using sodium hydrogen carbonate were subjected to ^1H-NMR measurement.

[2] = test system: paddy rice variety "Nipponbare"; test: Alkaline soil cultivation test; format: in vivo; details: fossil shellfish soil pH9; 30 μmol administered only once; SPAD 7 days after the administration; FIG. 4
Method: The paddy rice variety “Nipponbare” was seeded in tap water. When roots and buds emerged, seedlings were soaked in a hydroponic solution (formulation in the Horticultural Experiment Station). When the plant height reached about 7 cm, the seedlings were transplanted into fossil shellfish soil having a pH9. Aqueous solutions containing 30 μmol of each of Fe-PDMA, only PDMA, a complex composed of the lactam compound (L2) and iron sulfate (III) (hereinafter, referred to as “Fe(III)-lactam compound (L2)”), a complex composed of the lactam compound (L2) and iron sulfate (II) (hereinafter, referred to as “Fe(II)-lactam compound (L2)”), lactam compound (L2), disodium ethylenediamine tetraacetate, Fe-EDTA, Fe-EDDHA, iron sulfate (III) or iron sulfate (II). were administered only once to each of the soil to measure SPAD values 7 days after the administration. According to FIG. 4, SPAD values were 33.8 and 30.9, respectively when either the Fe-lactam compound (L2) of divalent and trivalent iron was used.

For O=C(O)[C@@H]1CCCN1CC[C@@H](C(=O)O)N1CC[C@H](O)C1=O [lactam compound (L2)], the “stability of the lactam ring in water” value [1] was “the lactam ring structure is maintained” and the “growth effect in alkaline soil” value [2] was “the effect can be obtained”.
